Values of other authors as cited in publication PMC8452925, “Differential Modulation of the Voltage-Gated Na^+ Channel 1.6 by Peptides Derived From Fibroblast Growth Factor 14” (Frontiers in Molecular Biosciences, 2021).

Tests used:
[1] = test system: FGF14^Y158A:Nav1.6 complex; details: 50 µM, LCA, ref Singh et al., 2020
Description: In our previous study ([Singh et al., 2020]), we pharmacologically evaluated all three tetrapeptides at a single concentration of 50 µM using the LCA. […] For example, in the FGF14^V160A condition, all three peptides lost activity, whereas in the FGF14^Y158A condition, FLPK retaine ...

FGF14:Nav1.6 complex = molecular target: T1, FGF14:Nav1.6 complex (Homo sapiens, UniProt Q92915); details: ref Singh et al., 2020
T1 construct: expressed in transfected cells
T1 sequence (Q92915 1-252 isoform Q92915-2): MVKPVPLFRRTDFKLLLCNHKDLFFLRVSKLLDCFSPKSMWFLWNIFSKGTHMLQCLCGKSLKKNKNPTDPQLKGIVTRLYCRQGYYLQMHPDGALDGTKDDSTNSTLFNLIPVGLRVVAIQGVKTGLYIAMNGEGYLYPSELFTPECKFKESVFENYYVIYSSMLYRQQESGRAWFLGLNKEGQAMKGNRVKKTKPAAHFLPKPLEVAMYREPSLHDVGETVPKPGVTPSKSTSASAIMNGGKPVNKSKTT
Excerpt: (§1) To guide drug discovery efforts targeting the PPI interface between FGF14 and the CTD of Nav1.6, we previously developed and interrogated a homology model of the PPI interface to identify putative clusters of amino acids central to assembly of the complex ([Ali et al., 2014], [2016]). These investigations identified the Phe-Leu-Pro-Lys (FLPK) and Pro-Leu-Glu-Val (PLEV) motifs on the β12 sheet of FGF14, and the Glu-Tyr-Tyr-Val (EYYV) motif on the β8-β9 loop of FGF14, as being putatively essential for FGF14:Nav1.6 complex assembly ([Ali et al., 2014], [2016]). To investigate if short peptides de ...

MSNs of the NAc = details: ref Singh et al., 2020
Excerpt: as §1

[2] = test system: human Nav1.6 with FGF14-GFP; details: ref Singh et al., 2020
Excerpt: as §1

Substance: Phe-Leu-Pro-Lys [FLPK, tetrapeptide from the β12 sheet of FGF14, previously evaluated (Singh et al., 2020)]
- Effect on complex assembly with FGF14^Y158A (in words) [1]: retained its inhibitory effects on FGF14:Nav1.6 complex assembly
- Effect on FGF14:Nav1.6 complex assembly (in words) (FGF14:Nav1.6 complex): inhibited FGF14:Nav1.6 complex assembly
- Effect on neuronal excitability (in words) (MSNs of the NAc): affected neuronal excitability of MSNs of the NAc
- Effect on FGF14-mediated regulation of Nav1.6 channel activity (in words) [2]: reversed FGF14-mediated regulatory effects on Nav1.6 channel activity
